Experimental findings from patent US20090130035A1, “STABILIZED PREPARATIONS COMPRISING PHENOLIC COMPOUNDS AND BENZOPHENONES” (SYMRISE GmbH & Co. KG, priority 2006, published 2009) are described below.

What all share (assay type): physicochemical
Data set [1] can be described thus: Irradiation (24 h UV test, Ultra-Vitalux W300) of oil phase solutions, chromametric b* values. Conditions: for b* value: after irradiation. The protocol:
In order to examine to what extent the stability of the compound of the formula (IA) can be increased by predissolution in an oil phase to which an oil-soluble photoprotective filter of the formula (II) is added, irradiation experiments were conducted. The oil phase used was 2-ethylhexyl isononanoate (INCI: Ethylhexyl isononanoate). The amount of 4-(1-phenylethyl)-1,3-dihydroxybenzene (formula (IA) was in this case in a range from 10% to 20% by weight, based on the amount of oil phase. The amount of the photoprotective filter added for colour stabilization, 2-hydroxy-4-methoxybenzophenone (INCI: Benzophenone-3, formula (IIC)), was in each case 1% by weight. In order to examine to what extent the addition of a photoprotective filter of the formula (II) is advantageous, all of the samples were irradiated for 24 hours with light (light source: Ultra-Vitalux W300). For the measurement of any colour changes that occurred, all of the samples were subjected to chromametry both before and after irradiation to determine the b* values, which represent a measure of the shift in the blue-yellow axis and so give a direct indication of a yellow discoloration occurring.

A short description of data set [2]: pH series: aqueous-ethanolic solutions stored in the dark for 28 days, chromametric b* values. The conditions noted are these: after 28 days, without disodium EDTA. On the procedure:
In order to examine to what extent the degradation and the associated yellow to brown discoloration of 4-(1-phenylethyl)-1,3-dihydroxybenzene (CARN: 85-27-8; formula (IA)) in cosmetic and pharmaceutical formulations is also influenced by the pH value of the preparation, serial pH experiments were conducted, by dissolving 4-(1-phenylethyl)-1,3-dihydroxybenzene (CARN: 85-27-8; formula (IA)) in aqueous/ethanolic solutions which had been adjusted to different pH values (pH 4, 5, 7 and 9, Table 2) using buffer solutions. The amount of 4-(1-phenylethyl)-1,3-dihydroxybenzene (CARN: 85-27-8; formula (IA)) was in each case 0.5 percent by weight. All of the samples were stored in the dark for 28 days at room temperature. In order to measure any colour changes occurring, all samples were subjected to chromametric determination, both at the beginning of the experiment and at the end of a storage time of 28 days, of the b* values, which represent a measure of the shift in the blue-yellow axis and therefore give a direct indication of any yellow discoloration occurring.

The nature of data set [3]: pH series with disodium EDTA: aqueous-ethanolic solutions stored in the dark for 28 days, chromametric b* values. The conditions noted are these: after 28 days. From the text:
The amount of 4-(1-phenylethyl)-1,3-dihydroxybenzene (CARN: 85-27-8; formula (IA)) was again in each case 0.5 percent by weight. The samples were likewise stored in the dark at room temperature for 28 days.

Turning to `CC(c1ccccc1)c1ccc(O)cc1O` (stereo not shown) [4-(1-phenylethyl)-1,3-dihydroxybenzene], the “b* value” stood at 34.0 in data set [1] (reference specimen not stabilized with benzophenone-3); 10.3 in data set [1] (solution with 10 percent by weight, plus 1 percent benzophenone-3); 15.5 in data set [1] (solution with 15 percent by weight, plus 1 percent benzophenone-3); 10.6 in data set [1] (solution with 20 percent by weight, plus 1 percent benzophenone-3); 2.0 in data set [2] (pH 4, 0.5% solution); 4.6 in data set [2] (pH 5, 0.5% solution). For the same compound, the “b* value” in data set [2] (pH 7, 0.5% solution) is 19.4; in data set [2] (pH 9, 0.5% solution), 55.3; in data set [3] (pH 4, 0.5% solution), 1.5; in data set [3] (pH 5, 0.5% solution), 3.6; in data set [3] (pH 7, 0.5% solution), 14.8; in data set [3] (pH 9, 0.5% solution), 40.2. For the same compound, the “stability of solutions on irradiation with light” value in data set [1] (light source Ultra-Vitalux W300, yellowish to brownish discoloration) is “a certain instability”.
